One test relates to Borreria verticillata. The test can be described thus: Greenhouse post-emergence herbicidal efficacy on Borreria verticillata. Type of test: in vivo. The following applies: 14 DAA. On the procedure:
(§1) The expected efficacy of a combination of L-glufosinate ammonium and the other herbicides was calculated using the well-established Colby method. Any difference between the observed and “expected” efficacy could be attributed to synergy between the two compounds.
(§2) In the Colby method, the expected (or predicted) response of a combination of herbicides is calculated by taking the product of the observed response for each individual component of the combination when applied alone, divided by 100, and subtracting this value from the sum of the observed response for each component when applied alone. An unexpected enhancement in efficacy of the combination is then determined by comparing the observed response of the combination to the expected (or predicted) response as calculated from the observed response of each individual component alone. If the observed response of the combination is greater than the expected (or predicted) response, or stated conversely, if the difference between the observed and expected response is greater than zero, then the combination is said to be synergistic or unexpectedly effective (Colby, S. R., Weeds, 1967(15), p. 20-22). The Colby method requires only a single dose of each herbicide applied alone and the mixture of both doses. The formula used to calculate the expected efficacy (EE) which was compared with the observed efficacy (OE) to determine the efficacy of the present disclosure is explained hereinbelow:
(§3) The expected efficacy for a combination of two active ingredients is as follows:
(§4) The expected efficacy for a combination of three active ingredients is as follows:
(§5) [formula] • wherein, • A=Observed efficacy of active ingredient A at the same concentration as used in the mixture. • B=Observed efficacy of the active ingredient B at the same concentration as used in the mixture. • C=Observed efficacy of the active ingredient C at the same concentration as used in the mixture.
(§6) Greenhouse trials were conducted to evaluate the efficacy of the combination of L-glufosinate ammonium and metribuzin, L-glufosinate ammonium and metribuzin+sulfentrazone and L-glufosinate ammonium and metribuzin+oxyfluorfen—on weeds Borreria verticillate, Euphorbia heterophylla.
(§7) The soil used was sandy clay loam—sand: 68.0%; silt: 8.0%; clay: 24.0%.
(§8) All treatments were in 4 replications per treatment with a spray volume of 150 L/ha.
The percentage efficacy was calculated at 14 days after application (DAA). The target weed was Borreria verticillata, and the concentration of the herbicide and the results are recorded in Table 1.
The percentage efficacy was calculated at 14 DAA. The target weed was Borreria verticillata, and the concentration of the herbicides and the results are recorded in the Table 3.
The percentage efficacy was calculated at 14 DAA. The target weed was Borreria verticillata, and the concentration of the herbicides and the results are recorded in Table 5.

The next test has as its system Euphorbia heterophylla. The test can be described thus: Greenhouse post-emergence herbicidal efficacy on Euphorbia heterophylla. Type of test: in vivo. On the procedure:
as §1, §2, §3, §4, §5, §6, §7, §8
The percentage efficacy was calculated at 7, 14 and 21 DAA. The target weed was Euphorbia heterophylla, and the concentration of the herbicide and the results are recorded in Table 2.
The percentage efficacy was calculated at 14, 21 and 28 DAA. The target weed was Euphorbia heterophylla, and the concentration of the herbicides and the results are recorded in Table 4.
The percentage efficacy was calculated at 14 and 21 DAA. The target weed was Euphorbia heterophylla, and the concentration of the herbicides and the results are recorded in Table 6.

For test [1], the system named is Viola arvensis, Bromus spp., Lolium spp., Agropyron repens and Urtica urens. The following applies: reported by Hoechst et al., 1991; cited from earlier work.

On to `Cc1nn(-c2cc(NS(C)(=O)=O)c(Cl)cc2Cl)c(=O)n1C(F)F` [Sulfentrazone], for which the “Observed efficacy (%) of sulfentrazone (300 g a.i./ha)” value with Borreria verticillata (Table 5, 300 g a.i./ha) was 30%; in the test with Euphorbia heterophylla (Table 6, 14 DAA) it was 25%; with Euphorbia heterophylla (Table 6, 21 DAA), 15%.

With `CP(=O)(O)CC[C@H](N)C(=O)O.N` [L-glufosinate ammonium, ammonium (2S)-2-amino-4-(methylphosphinato)butyric acid], the “Observed efficacy (%) of L-glufosinate ammonium (150 g a.i./ha)” value was found to be 80% with Borreria verticillata (Table 1); 80% in the test on Borreria verticillata (Table 3); 80% in the test with Borreria verticillata (Table 5); 95% in the test with Euphorbia heterophylla (Table 2, 7 DAA); 85% in the test on Euphorbia heterophylla (Table 2, 14 DAA); 70% in the test with Euphorbia heterophylla (Table 2, 21 DAA). Besides, the “Observed efficacy (%) of L-glufosinate ammonium (150 g a.i./ha)” value came to 88% in the test with Euphorbia heterophylla (Table 4, 14 DAA); 85% in the test with Euphorbia heterophylla (Table 4, 21 DAA); 85% with Euphorbia heterophylla (Table 4, 28 DAA); 85% in the test with Euphorbia heterophylla (Table 6, 14 DAA); 70% in the test with Euphorbia heterophylla (Table 6, 21 DAA).

Turning to `CCOc1cc(Oc2ccc(C(F)(F)F)cc2Cl)ccc1[N+](=O)[O-]` [Oxyfluorfen], the “Observed efficacy (%) of oxyfluorfen (430 g a.i./ha)” value is on record as 70% in the test with Borreria verticillata (Table 3, 430 g a.i./ha); 65% in the test with Euphorbia heterophylla (Table 4, 14 DAA); 50% in the test with Euphorbia heterophylla (Table 4, 21 DAA); 40% in the test with Euphorbia heterophylla (Table 4, 28 DAA).

`CP(=O)(O)CCC(N)C(=O)O` (racemic) [glufosinate, DL-homoalanin-4-yl(methyl)phosphinic acid]: in test [1], the “Control of weed species by glufosinate” value was “either not combated, or only weakly combated”.

Take `CSc1nnc(C(C)(C)C)c(=O)n1N` [Metribuzin]: the “Observed efficacy (%) of metribuzin (252 g a.i./ha)” value amounted to 30% with Borreria verticillata (Table 1); 30% in the test on Borreria verticillata (Table 3); 55% in the test with Borreria verticillata (Table 5); 35% in the test on Euphorbia heterophylla (Table 2, 7 DAA); 25% in the test on Euphorbia heterophylla (Table 2, 14 DAA); 15% in the test with Euphorbia heterophylla (Table 2, 21 DAA). Besides, the “Observed efficacy (%) of metribuzin (252 g a.i./ha)” value in the test with Euphorbia heterophylla (Table 4, 14 DAA) turned out to be 30%; with Euphorbia heterophylla (Table 4, 21 DAA), 20%; in the test with Euphorbia heterophylla (Table 4, 28 DAA), 10%; with Euphorbia heterophylla (Table 6, 14 DAA) it was 85%; with Euphorbia heterophylla (Table 6, 21 DAA), 85%.

(Values after patent US20260215431A1, “AN HERBICIDAL COMBINATION, COMPOSITION AND METHOD OF CONTROLLING WEEDS USING THE SAME” (priority 2023, published 2026).)
